{"source": "patent US6420532B1", "about": "“Method of obtaining compositions comprising Y2 specific compounds” (Synaptic Pharmaceutical Corporation, priority 1994, dated 2002)", "key": {"[1]": {"target": "T1, human Y2 receptor (Homo sapiens, UniProt P49146)", "T1 sequence (P49146 1-381)": "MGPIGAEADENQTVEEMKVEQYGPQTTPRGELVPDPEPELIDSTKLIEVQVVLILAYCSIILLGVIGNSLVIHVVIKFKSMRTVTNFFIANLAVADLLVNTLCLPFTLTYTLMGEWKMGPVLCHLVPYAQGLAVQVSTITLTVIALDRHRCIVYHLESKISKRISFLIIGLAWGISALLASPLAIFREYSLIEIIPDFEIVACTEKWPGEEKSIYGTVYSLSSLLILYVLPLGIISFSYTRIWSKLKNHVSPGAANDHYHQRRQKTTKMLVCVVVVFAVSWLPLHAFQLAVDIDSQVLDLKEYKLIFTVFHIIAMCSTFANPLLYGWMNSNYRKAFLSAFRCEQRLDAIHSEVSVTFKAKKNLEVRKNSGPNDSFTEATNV", "assay": "Intracellular calcium mobilization (Fura-2/AM), stably transfected 293 cells", "conditions": "pretreatment 100 ng/ml for 24 hours"}, "[2]": {"target": "T2, CG-13 receptors (human Y2 receptor) (Homo sapiens, UniProt P49146)", "T2 construct": "expressed in transfected cells; host or cells: COS-7 (transient, DEAE-dextran)", "T2 sequence (P49146 1-381)": "T1 sequence (P49146 1-381)", "assay": "Competitive displacement of 125I-PYY, membranes of COS-7 cells transiently expressing CG-13 (human Y2)", "format": "binding", "conditions": "100 μM Gpp(NH)p, human Y2 in COS-7", "protocol": "Binding data were generated from competitive displacement assays in the absence (●) or presence (∘) of 100 μM Gpp(NH)p. The maximum specific binding detected under control conditions (in the absence of Gpp(NH)p) was used to normalize the data. A) Human Y2 receptor transiently expressed in COS-7 cells. B) Rat Y2a receptor transiently expressed in COS-7 cells.\n(§1) Membranes were harvested from COS-7 cells 48 hours after transfection and from SK-N-Be(2) seven days after splitting.\n(§2) Incubations were terminated by filtration over Whatman® GF/C filters (pre-coated with 0.5% polyethyleneimine and air-dried before use). […] Specific binding in time course and competition studies was typically 80%; most non-specific binding was associated with the filter."}, "[3]": {"target": "T1, human Y2 receptor", "assay": "125I-PYY binding to membranes from 293 stable clone (293-hY2-10)", "parameters": "expressed in transfected cells", "conditions": "100 μM Gpp(NH)p, 0.08 nM 125I-PYY, 293 cell membranes"}, "[4]": {"target": "T1, human Y2 receptor", "assay": "125I-PYY binding to membranes from stably transfected NIH-3T3 cells (N-hY2-5)", "parameters": "expressed in transfected cells", "conditions": "100 μM Gpp(NH)p, 0.08 nM 125I-PYY, NIH-3T3 cell membranes", "source_text": "Two positive clones were identified and isolated for further study (293 clone #10 and NIH-3T3 clone #5). […] The data serve to emphasize that the receptor/G protein interactions for a given receptor clone can vary depending upon the resident G proteins in the host cell line (93). Additional factors such as receptor density and receptor reserve can also play a role (92)."}, "[5]": {"target": "T3, rat Y2a receptor (Rattus norvegicus, UniProt Q9ERC0)", "T3 construct": "expressed in transfected cells; host or cells: COS-7 (transient); 4.0 kb EcoRI genomic fragment of rs5a in EXJ.RH", "T3 sequence (Q9ERC0 1-381)": "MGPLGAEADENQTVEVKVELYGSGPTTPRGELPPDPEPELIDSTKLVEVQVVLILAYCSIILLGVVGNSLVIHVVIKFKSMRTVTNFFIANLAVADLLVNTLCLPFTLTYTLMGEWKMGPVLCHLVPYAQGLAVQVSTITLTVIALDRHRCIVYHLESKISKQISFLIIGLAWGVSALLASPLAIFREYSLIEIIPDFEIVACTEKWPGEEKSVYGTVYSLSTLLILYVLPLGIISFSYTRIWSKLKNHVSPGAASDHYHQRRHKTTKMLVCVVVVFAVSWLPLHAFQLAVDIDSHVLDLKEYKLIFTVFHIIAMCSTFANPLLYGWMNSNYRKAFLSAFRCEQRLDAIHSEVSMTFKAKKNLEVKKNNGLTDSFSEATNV", "assay": "Competitive displacement of 125I-PYY, membranes of COS-7 cells transiently expressing rat Y2a", "format": "binding", "conditions": "100 μM Gpp(NH)p, rat Y2a in COS-7", "protocol": "Binding data were generated from competitive displacement assays in the absence (●) or presence (∘) of 100 μM Gpp(NH)p. The maximum specific binding detected under control conditions (in the absence of Gpp(NH)p) was used to normalize the data. […] B) Rat Y2a receptor transiently expressed in COS-7 cells.\nas §1, §2\nThe DNA corresponding to the rat Y2a homolog was transiently expressed in COS-7 cells for membrane binding studies."}, "[6]": {"target": "T1, human Y2 receptor", "assay": "Inhibition of forskolin-stimulated cAMP accumulation (radioimmunoassay), stably transfected 293 cells", "format": "cell-based", "parameters": "expressed in transfected cells", "conditions": "maximum inhibition of cAMP accumulation relative to that produced by human NPY"}, "[7]": {"target": "T1, human Y2 receptor", "conditions": "stably transfected NIH-3T3 cells"}, "[8]": {"system": "PYY-preferring receptor", "conditions": "rat small intestine; cited from earlier work"}}, "data": [{"compound": "pertussis toxin", "values": [{"measurement": "decrease of the response to 300 nM human PYY", "setting": "[1]", "value": 93, "unit": "%"}]}, {"compound": "Nc1nc2c(ncn2[C@@H]2O[C@H](COP(=O)(O)OP(=O)(O)NP(=O)(O)O)[C@@H](O)[C@H]2O)c(=O)[nH]1", "note": "[Gpp(NH)p]", "values": [{"measurement": "decrease of specific binding of 125I-PYY", "setting": "[2]", "value": 4, "unit": "%"}, {"measurement": "reduction of specific binding of 125I-PYY", "setting": "[3]", "value": 32, "unit": "%"}, {"measurement": "reduction of specific binding of 125I-PYY", "setting": "[4]", "value": 6, "unit": "%"}, {"measurement": "decrease of specific binding of 125I-PYY", "setting": "[5]", "value": 23, "unit": "%"}]}, {"compound": "Neuropeptide Y [NPY, human]", "values": [{"measurement": "Function Emax", "setting": "[6]", "value": 100, "unit": "%"}, {"measurement": "decrease of forskolin-stimulated cAMP accumulation", "setting": "[7]", "value": 50, "unit": "%"}]}, {"compound": "PYY: PYY, species not stated (Table 2, b7) [peptide YY]", "values": [{"measurement": "higher affinity for PYY than for NPY", "setting": "[8]", "value": "5-10 fold"}]}]}
